The text below walks through data of US20260355217A1, “HPK1 INHIBITOR, PREPARATION METHOD THEREFOR, AND USE THEREOF” (Beijing Earthwise Technology Co., Ltd., priority 2022, published 2026).

Molecules are shown by their SMILES.

One may read the IC50 as the point on the concentration scale where inhibition reaches its midpoint. Higher therefore signals a need for much substance. For orientation: EC50 means the concentration giving half of the maximal effect. High values mean a need for much substance, low ones an effect from little substance.

The target of the first test is T1, pSLP76 (Phospho-SLP-76 (Ser376)), Jurkat E6-1 cells (Homo sapiens, UniProt Q92918).
T1 construct: read-out phospho-SLP-76 (Ser376) HTRF
T1 sequence (Q92918 whole entry): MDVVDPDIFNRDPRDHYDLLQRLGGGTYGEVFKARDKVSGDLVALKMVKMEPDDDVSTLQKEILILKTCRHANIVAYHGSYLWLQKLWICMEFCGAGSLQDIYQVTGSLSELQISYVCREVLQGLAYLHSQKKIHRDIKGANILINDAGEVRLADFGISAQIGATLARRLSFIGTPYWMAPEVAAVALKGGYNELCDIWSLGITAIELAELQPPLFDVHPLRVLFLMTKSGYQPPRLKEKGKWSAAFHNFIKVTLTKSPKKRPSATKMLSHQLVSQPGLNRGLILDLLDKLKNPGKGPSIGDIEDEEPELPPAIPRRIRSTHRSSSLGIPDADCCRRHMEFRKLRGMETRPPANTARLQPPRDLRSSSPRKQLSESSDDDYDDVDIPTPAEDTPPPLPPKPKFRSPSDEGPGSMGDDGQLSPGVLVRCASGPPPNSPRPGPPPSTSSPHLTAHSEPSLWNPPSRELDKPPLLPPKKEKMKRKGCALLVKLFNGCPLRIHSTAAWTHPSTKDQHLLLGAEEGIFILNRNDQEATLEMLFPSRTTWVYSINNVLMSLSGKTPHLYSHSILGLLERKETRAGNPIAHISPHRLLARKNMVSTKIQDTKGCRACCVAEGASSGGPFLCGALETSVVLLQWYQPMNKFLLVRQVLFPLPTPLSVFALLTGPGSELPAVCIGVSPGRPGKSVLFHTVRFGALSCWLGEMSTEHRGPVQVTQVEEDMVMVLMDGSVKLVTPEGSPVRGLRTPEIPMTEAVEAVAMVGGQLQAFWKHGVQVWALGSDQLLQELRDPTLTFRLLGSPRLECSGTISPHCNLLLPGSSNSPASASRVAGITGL
Kind of test: Phospho-SLP-76 (Ser376) HTRF Assay in Jurkat E6-1 cells. The test is classed as cell-based. Conditions: compound 4 hours, then anti-CD3 20 minutes. The method, then: Assay Example 3 Phospho-SLP-76 (Ser376) HTRF Assay
A compound was dissolved in DMSO to 10 mM, and then diluted three-fold with DMSO to 10 dosages in a 96-well plate. Then, 3 μL of the diluted compound sample was transferred to a 96-well plate with 97 μL of cell culture medium, and the plate was shaken for 5 minutes. According to the experimental design diagram, 7.5 μL of the diluted compound sample was transferred to a cell plate. Final concentrations of the compound in this assay were 10000.00, 3333.33, 1111.11, 370.37, 123.46, 41.15, 13.72, 4.57, 1.52 and 0.51 nM.
In this assay, the density of Jurkat E6-1 cells was maintained between 3*10^5 to 3*10^6 cells/mL. The cell culture was replaced with fresh culture medium every 2 to 3 days (depending on the cell density). 30 μL of Jurkat E6-1 (300,000 cells) was added to a 96-well plate and incubated in a 37 °C incubator for 1 hour. Then, according to the experimental design diagram, compounds (6×, 7.5 μL) were added to treat the cells for 4 hours, respectively. After 4 hours, purified anti-human anti-CD3 antibodies (6×, 7.5 μL) were added to treat the cells for 20 minutes. After 20 minutes, 15 μL of cell lysis buffer (4×) was added, and the cells were lysed at 25 °C with shaking (250 rpm) for 1 hour. Then, according to the experimental design diagram, 16 μL of cell lysate was transferred to a 384-well plate using a pipette. After the transfer, 4 μL of antibody detection mixture was added. After being placed at room temperature overnight, the plate was read by EnVision multi-function microplate reader to read the FRET signal (the ratio of HTRF 665/615 was calculated from the readings at 665 nm and 615 nm).
The ratio of the signal at 665 nm to the signal at 615 nm was converted to the percentage of inhibition. Inhibition %=(maximum value−sample value)/(maximum value−minimum value)×100. The minimum value refers to the signal value of a well without anti-CD3 antibody stimulation during the treatment of cells, and the maximum value refers to the signal value of a well with anti-CD3 antibody stimulation but without the compound during the treatment of cells. IC50 values were calculated by XLFit (version 5.3.1.3) in excel. Equation: Y=Bottom+(Top−Bottom)/(1+(IC50/X)^HillSlope).
In the case of `CC1(C)c2cc(N3CCOCC3)ccc2Nc2c1cc(-c1cnc3c(Cl)cccn13)c1cc[nH]c(=O)c21` [Example 1], the IC50 was 121 nM. `COc1cccn2c(-c3cc4c(c5c(=O)[nH]ccc35)Nc3ccc(N5CCOC(C(C)(C)O)C5)cc3C4(C)C)cnc12` (centres unmarked) [Example 2]: the IC50 came out at 64 nM. The compound `COc1cccn2c(-c3cc4c(c5c(=O)[nH]ccc35)Nc3ccc(N5CCOCC5)cc3C4(C)C)cnc12` [Example 3] gave a 50% inhibitory concentration (IC50) of 57.5 nM. This IC50 and that of the compound before are within 1.5-fold of each other.

The compound `CC1(C)c2cc(N3CCOCC3)ccc2Nc2c1cc(-c1cnn3cccnc13)c1cc[nH]c(=O)c21` [Example 4] returned an IC50 of 38.1 nM. Same read-out and setting: the value for `Cc1ccn2c(-c3cc4c(c5c(=O)[nH]ccc35)Nc3ccc(N5CCOC(C(C)(C)O)C5)cc3C4(C)C)cnc2c1F` (centres unmarked) [Example 6] was 164 nM; that for `Cc1ccc2c(-c3cc4c(c5c(=O)[nH]ccc35)Nc3ccc(N5CCOC(C(C)(C)O)C5)cc3C4(C)C)cnn2c1` (centres unmarked) [Example 7] was 487 nM. `COc1cccc2c(-c3cc4c(c5c(=O)[nH]ccc35)Nc3ccc(N5CCOCC5)cc3C4(C)C)cnn12` [Example 8] showed a 50% inhibitory concentration (IC50) of 103 nM. Still for that read-out and setting: the value for `Cc1ccn2c(-c3cc4c(c5c3CNC5=O)Nc3ccc(N5CCOC(C(C)(C)O)C5)cc3C4(C)C)cnc2c1F` (centres unmarked) [Example 9] was 57.8 nM; that for `COc1cccn2c(-c3cc4c(c5c3CNC5=O)Nc3ccc(N5CCOCC5)cc3C4(C)C)cnc12` [Example 10] was 42.7 nM. Still for that read-out and setting: the same measure for `Cc1ccn2c(-c3cc4c(c5c3CNC5=O)Nc3ccc(N5CCOCC5)cc3C4(C)C)cnc2c1F` [Example 11]: 73.3 nM; for `CC1(C)c2cc(N3CCOCC3)ccc2Nc2c1cc(-c1cnc3cccnn13)c1c2C(=O)NC1` [Example 12]: 25.9 nM. The same measure, in the same setting: the same measure for `COc1cccn2c(-c3cc4c(c5c3CNC5=O)Nc3cnc(N5CCOCC5)cc3C4(C)C)cnc12` [Example 14]: 197 nM; for `CC1(C)c2cc(N3CCOCC3)ccc2Nc2c1cc(-c1cnn3cccnc13)c1c2C(=O)NC1` [Example 16]: 31.6 nM. For the compound `CC1(C)c2cc(N3CCOCC3)ccc2Nc2c1cc(-c1cnn3c(C#N)cccc13)c1c2C(=O)NC1` [Example 17], the half-inhibitory concentration (IC50) is 56.9 nM. This IC50 is about 1.8-fold higher than that of the compound before. For the compound `COc1cccc2c(-c3cc4c(c5c3CNC5=O)Nc3ccc(N5CCOCC5)cc3C4(C)C)cnn12` [Example 18], the midpoint of inhibition, the IC50, lay at 66 nM. `COc1cccn2c(-c3cc4c(c5c3CNC5=O)Nc3ccc(N5CCOCC5)nc3C4(C)C)cnc12` [Example 20]: the IC50 was determined as 83.6 nM. This IC50 and that of the compound before are within 1.5-fold of each other. For `COc1cccc2c(-c3cc4c(c5c3CNC5=O)Nc3ncc(N5CCOCC5)cc3C4(C)C)cnn12` [Example 21], the IC50 stood at 37 nM. On to `COc1ccnn2c(-c3cc4c(c5c3CNC5=O)Nc3ccc(N5CCOCC5)cc3C4(C)C)cnc12` [Example 31], for which the 50% inhibitory concentration (IC50) is 58.8 nM. `Cn1ccn2c(-c3cc4c(c5c3CNC5=O)Nc3ccc(N5CCOCC5)cc3C4(C)C)cnc2c1=O` [Example 41] had an IC50 of 13.5 nM.

The subject of the next test is human Pan T cells (IL-2 release). Kind of test: Human Pan T Cell IL-2 ELISA. The following applies: Anti-CD3/Anti-CD28, 48 hours, IL-2 ELISA. The test is classed as cell-based. Here is the method:
Assay Example 4 Human Pan T Cell IL-2 ELISA
A compound was dissolved in DMSO to 10 mM, and then diluted three-fold with DMSO to 9 dosages in a 96-well plate. Then, 10 μL of the diluted compound sample was transferred to a 96-well plate with 90 μL of cell culture medium, and the plate was shaken for 5 minutes. Then, 5 μL of the diluted compound sample was transferred to a 96-well plate with 120 μL of cell culture medium, and the plate was shaken for 5 minutes. According to the experimental design diagram, 50 μL of the diluted compound sample was transferred to a cell plate. Final concentrations of the compound in this assay were 10000.00, 5000, 2500, 1250, 625, 312.5, 156.25, 78.125 and 39.063 nM.
The assay was conducted in a 96-well plate. On the first day of the assay, Anti-CD3 was added to the 96-well plate and incubated in a 4 °C refrigerator overnight. On the second day of the assay, human Pan T cells were recovered, centrifuged and counted. The cell density was adjusted to 1*10^6 cells/ml. Then, 100 μL of cells were added to the 96-well plate washed with PBS and added with Anti-CD3; according to the experimental design diagram, 50 μL of diluted Anti-CD28 and 50 μL of the diluted compound were added to each well, centrifuged, and the cell plate was placed and incubated in an incubator for 48 hours; after 48 hours, the plate was centrifuged and the supernatant was collected for IL-2 ELISA.
The signal value of light absorption was converted into a multiple. Multiple=sample value/the average value of control wells. The average value of control wells refers to the value measured in wells with DMSO added. EC50 values were calculated by XLFit (version 5.3.1.3) in Excel. Equation: Y=Bottom+(Top−Bottom)/(1+(EC50/X)^HillSlope).
Background: ELISA stands for enzyme-linked immunosorbent assay.
For `COC1CCCn2c(-c3cc4c(c5c3CNC5=O)Nc3ccc(N5CCOCC5)nc3C4(C)C)cnc21` (single isomer, unassigned) [Example 25], the EC50 was found to be 33.4 nM. In other words, the double-digit nanomolar range.

Compound `Cc1ccn2c(-c3cc4c(c5c3CNC5=O)Nc3ccc(N5CCOC(C(C)(C)O)C5)cc3C4(C)C)cnc2c1` (single isomer, unassigned) [Example 106] displayed an EC50 of 18.3 nM. This EC50 is about 1.8-fold lower than that of the compound before. The same measure, in the same setting: the value for `COC1CCCn2c(-c3cc4c(c5c3CNC5=O)Nc3ccc(N5CCOC(C(C)(C)O)C5)cc3C4(C)C)cnc21` (single isomer, unassigned) [Example 132] was 10.1 nM.

Staying with this test, now noted: Anti-CD3/Anti-CD28 stimulation, 48 hours, IL-2 ELISA of supernatant.
As to `CC[C@@]1(C)c2cc(N3CCOCC3)ccc2Nc2c1cc(-c1cnc3n1CCC[C@@H]3OC)c1c2C(=O)NC1` (single isomer, unassigned) [Example 167], the response was half-maximal at 38 nM (EC50). Turning to `CC[C@@]1(C)c2cc(N3CCOCC3)ccc2Nc2c1cc(-c1cnc3n1CCC[C@@H]3OC)c1c2C(=O)NC1` (single isomer, unassigned) [Example 168], the half-maximal effective concentration (EC50) came out at 17 nM. This EC50 is about 2.2-fold lower than that of the compound before.

Consider `COC1CCCn2c(-c3cc4c(c5c3CNC5=O)Nc3ccc(N5CCOCC5C)cc3C4(C)C)cnc21` (single isomer, unassigned) [Example 180], for which the 50% effective concentration (EC50) is 27 nM. This EC50 is about 1.6-fold higher than that of the compound before. Turning to `COC1CCCn2c(-c3cc4c(c5c3CNC5=O)Nc3ccc(N5CCOCC5C)cc3C4(C)C)cnc21` (single isomer, unassigned) [Example 181], the concentration giving a half-maximal response (EC50) is 26 nM.

The test is the same for the next values; noted with them: Homo sapiens, T-cell, 48 h, Anti-CD3/Anti-CD28, IL-2 ELISA.
Regarding `Cc1ccn2c(-c3cc4c(c5c3CNC5=O)Nc3ccc(N5CCO[C@H](C(C)(C)O)C5)cc3C4(C)C)cnc2c1F` (single isomer, unassigned) [Example 89], the EC50 was 6.64 nM. Same read-out and setting: the value for `CO[C@@H]1CCCn2c(-c3cc4c(c5c3CNC5=O)Nc3ccc(N5CCOCC5)cc3C4(C)C)cnc21` (single isomer, unassigned) [Example 91] was 5.96 nM; that for `CC1(C)c2cc(N3CCO[C@H](C(C)(C)O)C3)ccc2Nc2c1cc(-c1cnc3cc(F)ccn13)c1c2C(=O)NC1` (single isomer, unassigned) [Example 94] was 4.84 nM. As to `Cc1ccc2c(-c3cc4c(c5c3CNC5=O)Nc3ccc(N5CCO[C@H](C(C)(C)O)C5)cc3C4(C)C)cnn2c1` (single isomer, unassigned) [Example 96], a half-maximal response (EC50) required 5.91 nM. The compound `CCO[C@@H]1CCCn2c(-c3cc4c(c5c3CNC5=O)Nc3ccc(N5CCOCC5)cc3C4(C)C)cnc21` (single isomer, unassigned) [Example 137] had an EC50 of 26.8 nM. Against the preceding compound, the EC50 is about 4.5-fold higher. Take `Cc1ccn2c(-c3cc4c(c5c3CNC5=O)Nc3ccc(N5CCO[C@H](C(C)(C)O)C5)cc3C4(C)C)cnc2c1` (stereo in doubt) [Example 107]: a half-maximal response (EC50) required 11.9 nM. For `CC1(C)c2cc(N3CCOCC3)ccc2Nc2c1cc(-c1cnc3c(Cl)cccn13)c1cc[nH]c(=O)c21` [Example 1], the half-maximal effective concentration (EC50) was determined as 3.67 nM. In turn, `COc1cccn2c(-c3cc4c(c5c3CNC5=O)Nc3ccc(N5CCOCC5)cc3C4(C)C)cnc12` [Example 10] had a half-maximal effective concentration (EC50) of 4.88 nM. `Cc1ccnn2c(-c3cc4c(c5c3CNC5=O)Nc3ccc(N5CCOC(C(C)(C)O)C5)cc3C4(C)C)cnc12` (centres unmarked) [Example 33]: the midpoint of the response, the EC50, lay at 4.95 nM. Compound `COc1ccnc2c(-c3cc4c(c5c3CNC5=O)Nc3ccc(N5CCOCC5)cc3C4(C)C)cnn12` [Example 66] had an EC50 of 7.83 nM.

Still in this test, the particulars now being: Homo sapiens, T-cell, 48 h, Anti-CD3/Anti-CD28 stimulation, IL-2 ELISA of supernatant.
On to `CO[C@H]1CCn2c(-c3cc4c(c5c3CNC5=O)Nc3ccc(N5CCO[C@@H](C(C)(C)O)C5)cc3C4(C)C)cnc2C1` (single isomer, unassigned) [Example 166], for which the half-maximal effective concentration (EC50) turned out to be 15 nM. `CO[C@@H]1CCn2c(-c3cc4c(c5c3CNC5=O)Nc3ccc(N5CCO[C@@H](C(C)(C)O)C5)cc3C4(C)C)cnc2C1` (single isomer, unassigned) [Example 176] registered an EC50 of 31 nM. As for `CC1(C)c2cc(N3CCOCC3)ccc2Nc2c1cc(-c1cnc3n1CCC[C@@H]3OC1COC1)c1c2C(=O)NC1` (single isomer, unassigned) [Example 221], the EC50 is 98 nM. Against the preceding compound, the EC50 is about 3.2-fold higher. Compound `CO[C@H]1CCCn2c(-c3cc4c(c5c3CNC5=O)Nc3ccc(N5CC6CCC5CO6)cc3C4(C)C)cnc21` (stereo in doubt) [Example 204] returned an EC50 of 15 nM. Same read-out and setting: the same measure for `CO[C@H]1CCCn2c(-c3cc4c(c5c3CNC5=O)Nc3ccc(N5CC6CCC(C5)O6)cc3C4(C)C)cnc21` [Example 196]: 27 nM.
